The target in the test is T1, E3 ubiquitin-protein ligase XIAP [241-356] (Homo sapiens, UniProt P98170).
T1 construct: 241-356
Kind of test: Competitive Fluorescent-binding Assay. The conditions noted are these: pH 7; 22 °C. The method, then: AVPC-badan can be displaced from the binding pocket of the protein by test compounds. As the dye is displaced from the binding pocket, the emission is reduced and resembles that of the AVPC-badan dye in solution alone. The AUC for the emission spectra of AVPC-badan alone, AVPC-badan, and for the Smac mimic bound to BIR3-XIAP are used to calculate a relative Kd for the Smac mimic. The relative Kd is then converted to an absolute Kd using the Kd value for AVPC-badan, which was determined in a titration assay.

T1 sequence (P98170 241-356): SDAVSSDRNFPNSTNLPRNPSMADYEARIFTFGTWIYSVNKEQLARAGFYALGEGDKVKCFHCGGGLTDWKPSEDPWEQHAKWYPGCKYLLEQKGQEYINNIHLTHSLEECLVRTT

For orientation: Kd means a measure of binding affinity in units of concentration. In turn, `CC[C@@H](C)[C@H](NC(=O)[C@@H]1CCCN1C(=O)c1coc([C@H](C)N)n1)C(=O)O` [(2S,3R)-2-{[(2S)-1-({2-[(1S)-1-aminoethyl]-1,3-oxazol-4-yl}carbonyl)pyrrolidin-2-yl]formamido}-3-methylpentanoic acid] registered a dissociation constant Kd of 300 µM.

(Values after BindingDB's records for doi:10.1016/j.bmc.2007.02.010 (Princeton University, 2007).)
